We go through six molecules from US5886207A, “Optically active compound of flubrocythrinate, a process for preparing the same” (Shanghai Zhongxi Pharmaceutical Co. Ltd., priority 1994, dated 1999).

Common to all, as to format: in vivo
For one test, the system named is wheat aphid. Kind of test: Laboratory toxicity test against wheat aphid (Topic application method). Conditions: for times as toxic as compound I against wheat aphid: relative to compound I, from Table 2; for LD50: third instar larva, topical 0.083 μl in acetone, 27° C., 48 hours. The procedure:
2. Laboratory toxicity test against wheat aphid (1) Method of manipulation (Topic application method) Weigh third instar larva on a swift electronic balance to obtain 8-18 mg/larva, and 0.083 μl of the insecticide solution in acetone at specified concentration with a microsyringe to the dorsal thorax of the larva, and then transfer the larva into a finger-type tube charged with artificial fodder, each tube for one larva, each concentration for 30 tubes, each insecticide run at 5 concentrations, and repeat 3 times. Place the tubes in a thermostat oven at 27° C. for 48 hours, and inspect the number of dead larva. Standard for death judgement: judge the wholly inflexible test aphid as death.

Test [1] has as its system tetranychus telarius Linnaeus. Kind of test: Laboratory toxicity test against tetranychus telarius Linnaeus (Pasting Method). The following applies: for LC50 / LC90: mature female mites, glass slide immersion 5 seconds, time 24 (hour); for times as toxic as compound I against tetranychus telarius Linnaeus: relative to compound I, from Table 1. The source says: 1. Laboratory toxicity test against tetranychus telarius Linnaeus
(1) Method of manipulation: (Pasting Method)
Take the robust mature female mites, and paste the back of the mite on a piece of glass with a transparent adhesive tape. Every piece of glass pasted with 40 mites, and three pieces of glasses for each concentration, each insecticide repeated three times at five concentration. […] Immerse the above glasses in a insecticidal solution of specified concentration for 5 seconds and take out from the solution. Use a piece of absorbent paper to absorb the surplus insecticidal solution, transfer the above treated glasses to a culture dish previously fitted with a wetted cotton wool. […] Standard for death judgement: use a needle to move the body of the mite, wholly inflexible judged as death.

Test [2] deals with tetranychus telarius Linnaeus and wheat aphid. Kind of test: Overall comparison of efficacy and dosage with compound I from Tables 1 and 2. Conditions: Tables 1 and 2, in words. The source says:
Take the robust mature female mites, and paste the back of the mite on a piece of glass with a transparent adhesive tape. Every piece of glass pasted with 40 mites, and three pieces of glasses for each concentration, each insecticide repeated three times at five concentration. […] Immerse the above glasses in a insecticidal solution of specified concentration for 5 seconds and take out from the solution. Use a piece of absorbent paper to absorb the surplus insecticidal solution, transfer the above treated glasses to a culture dish previously fitted with a wetted cotton wool. The culture dish is kept in a thermostat oven at 28° C. for 48 hours, and inspect the number of dead mites under binocular dissecteined microscope. Standard for death judgement: use a needle to move the body of the mite, wholly inflexible judged as death.
Weigh third instar larva on a swift electronic balance to obtain 8-18 mg/larva, and 0.083 μl of the insecticide solution in acetone at specified concentration with a microsyringe to the dorsal thorax of the larva, and then transfer the larva into a finger-type tube charged with artificial fodder, each tube for one larva, each concentration for 30 tubes, each insecticide run at 5 concentrations, and repeat 3 times. Place the tubes in a thermostat oven at 27° C. for 48 hours, and inspect the number of dead larva. Standard for death judgement: judge the wholly inflexible test aphid as death.
The compound A and Ib are 2.11 times and 1.78 times as toxic as compound I against tetranychus telarius Linnaeus, and are 1.95 times and 1.88 times as toxic as compound I against wheat aphid respectively. Therefore compound Ia has the preferred effect, and the dosage needed is the lowest; the next one are A and compound Ib.

With `CC(C)[C@H](C(=O)O[C@H](C#N)c1cccc(Oc2ccc(Br)cc2)c1)c1ccc(OC(F)F)cc1` (relative stereo) [A], in the test on wheat aphid, the “times as toxic as compound I against wheat aphid” value (“times … against wheat aphid” for short) came out at 1.95 times and the LD50 is recorded as 0.0003712 μg/larva. Moreover, in test [1], the 50% lethal concentration (LC50) came out at 10 ppm, the LC90 is 110 ppm and the “times as toxic as compound I against tetranychus telarius Linnaeus” value (from here on “times … against tetranychus telarius Linnaeus”) was 2.11 times. In test [2], the “dosage compared with compound I” value is reported as “lower than that of compound I” and the “efficacy compared with compound I” value is recorded as “apparently better than compound I”.

For `CC(C)[C@H](C(=O)O[C@H](C#N)c1cccc(Oc2ccc(Br)cc2)c1)c1ccc(OC(F)F)cc1` [Ia, (S)-α-Cyano-3-(4-bromophenoxy)benzyl-(S)-2-(4-difluoromethoxyphenyl)-3-methylbutyrate], in the test on wheat aphid, the “times … against wheat aphid” value is recorded as 4.06 times and the LD50 is reported as 0.0001783 μg/larva. Further, in test [1], the LC50 is 4 ppm, the LC90 amounted to 52 ppm and the “times … against tetranychus telarius Linnaeus” value stood at 4.46 times. Further, in test [2], the “dosage compared with compound I” value is “lower than that of compound I” and the “efficacy compared with compound I” value is given as “apparently better than compound I”.

For `CC(C)[C@H](C(=O)O[C@@H](C#N)c1cccc(Oc2ccc(Br)cc2)c1)c1ccc(OC(F)F)cc1` [Ib, (R)-α-Cyano-3-(4-bromophenoxy)benzyl-(S)-2-(4-difluoromethoxyphenyl)-3-methylbutyrate], in the test on wheat aphid, the “times … against wheat aphid” value was found to be 1.88 times and the LD50 is given as 0.000385 μg/larva. In test [1], the 50% lethal concentration (LC50) stood at 12 ppm, the LC90 stood at 130 ppm and the “times … against tetranychus telarius Linnaeus” value is on record as 1.78 times. In test [2], the “dosage compared with compound I” value was “lower than that of compound I” and the “efficacy compared with compound I” value is recorded as “apparently better than compound I”.

As for `CC(C)[C@@H](C(=O)O[C@H](C#N)c1cccc(Oc2ccc(Br)cc2)c1)c1ccc(OC(F)F)cc1` [Ic], the LD50 in the test on wheat aphid is 0.009252 μg/larva. Also, in test [1], the median lethal concentration (LC50) was 220 ppm and the LC90 is given as 2580 ppm.

`CC(C)[C@@H](C(=O)O[C@@H](C#N)c1cccc(Oc2ccc(Br)cc2)c1)c1ccc(OC(F)F)cc1` [Id, (R)-α-Cyano-3-(4-bromophenoxy)benzyl (R)-2-(4-difluoromethoxyphenyl)-3-methylbutyrate]: the LD50 in the test with wheat aphid was 0.05047 μg/larva. In test [1], this molecule returned a median lethal concentration (LC50) of 1200 ppm and an LC90 of 8000 ppm.

Turning to `CC(C)C(C(=O)OC(C#N)c1cccc(Oc2ccc(Br)cc2)c1)c1ccc(OC(F)F)cc1` (stereo not drawn) [compound I, α-cyano-3-(4-bromophenoxy) benzyl-2-(4-difluoromethoxyphenyl)-3-methylbutyrate, reference compound], in the test with wheat aphid, the LD50 was found to be 0.0007247 μg/larva. Further, in test [1], the LC50 was 19 ppm and the LC90 amounted to 232 ppm.
